Source: patent publication US11679107B2 (Eisai R&D Management Co., Ltd., priority 2018, dated 2023)
Read-outs that look alike come from different tables or passages of the source.

Columns and labels:
[1] = system: NCI-H1568 cells (high MCL1); test: Cell proliferation and viability, CellTiter-Glo, 72 hours; assay type: cell-based; conditions: for GI50: geometric mean
Protocol: Cell lines were maintained in RPMI-1640 (ATCC 30-2001) supplemented with 10% fetal bovine serum (FBS). The Panc lines were supplemented in addition with insulin and FBS up to 15% total.
Compounds for assay were prepared as stocks in 90% dimethyl sulfoxide (DMSO), assessed for purity by LC/MS, and serially diluted in DMSO using a low-volume liquid handler (VIAFLO ASSIST and VIAFLO II electronic 16-channel pipette, 0.5-12.5 μL) in an 11-point half-log serial dilution to create a master dose response (MDR) source used for all tests.
Transfer of compounds from the MDR source plate to cell assay-ready plates were accomplished directly by low-energy acoustic transfer (ATS100, EDC Biosystems). After transfer of compounds to the assay plate, the dose-response range experienced by cells was typically 10 μM-100 pM (5 logs), and final DMSO concentration in the assay was 0.1%, uniformly. Each assay plate was self-anchored containing vehicle/DMSO negative controls, medium-only/positive controls, and cidal control dose-responses of bortezomib and staurosporine. Assay-ready plates were heat-sealed and stored at −20° C. until used, no longer than one month.
A DMSO-matched time zero (T0) plate was read and then all other plates were incubated at 37° C. with 5% CO2 and 95% relative humidity until the end of assay. Cell proliferation and viability assays were performed 72 hours post-treatment depending on cell growth where at least one doubling would have occurred.
Assessment of viability and proliferation was by measurement of cell ATP content using CellTiter-Glo® Luminescent Cell Viability Assay reagent (Promega) according to the manufacturer's instructions (CellTiter-Glo® Luminescent Cell Viability Assay Technical Bulletin Instructions for Use of Product(s) G7570, G7571, G7572, G7573 Literature #TB288, Revised March 2015), using a microtiter plate reader (Envision, PE).
Cell proliferation was evaluated using the time zero (T0) signal as the positive control and the within-plate vehicle wells (DMSO) as the negative control. Data was converted to percent inhibition and falls into the range from −100% to 100% of growth where −100% equals a cidal response and 100% equals uninhibited or maximal growth. Cell growth at or near 0% is considered a static response.

[2] = system: Ad2 variant pre-mRNAs spliced in HeLa S3 nuclear extracts; test: In vitro splicing assay (IVS), RT-qPCR of spliced product; assay type: biochemical; conditions: for IC50: geometric mean; for Ratio Ad2.1/2.2: ratio of IVS IC50 Ad2.1 to Ad2.2
Protocol: (§1) Batch immobilization of anti-SF3B1 antibody (MBL) to anti-mouse PVT SPA scintillation beads (PerkinElmer) was prepared as follows: for every 2.5 mg of nuclear extracts, 5 μg anti-SF3B1 antibody and 1.5 mg of beads were mixed in 150 μl PBS. The antibody-bead mixture was incubated for 30 min at RT and centrifuged at 18,000 g for 5 min. 150 μl PBS was used to resuspend every 1.5 mg antibody-bead mixture. The beads were suspended and added to the prepared nuclear extracts. The slurry was incubated for 2 h at 4° C. with gentle mixing. The beads were then collected by centrifuging at 18,000 g for 5 min, and washed twice with PBS+0.1% Triton X-100. After a final centrifugation step, every 1.5 mg of beads was suspended with 150 μl of PBS. The SF3b complexes were tested for [^3H]-labelled pladienolide probe binding ([^3H]—PB), synthesized as previously described (Kotake et al., 2007). 100 μl binding reactions were prepared with 50 μl bead slurry and by adding varying concentrations of PB or PB—OH, and after 30 min pre-incubation, 2.5 nM [^3H]—PB was added. The mixture was incubated for 30 min, and luminescence signals were read using a MicroBeta2 Plate Counter (PerkinElmer). Prism 6 (Graphpad) was used for non-linear regression curve fitting of the data. • a. • b. HeLa nuclear extract preparation (for in vitro splicing modulation assay below) • c. HeLa S3 cell pellets were resuspended in hypotonic buffer (10 mM HEPES pH 7.9, 1.5 mM MgCl2, 10 mM KCl, 0.2 mM PMSF, and 0.5 mM DTT) and the suspension was brought up to a total of 5 packed cell volume (PCV). After centrifugation, the supernatant was discarded, and the cells were brought up to 3 PCV with hypotonic buffer and incubated on ice for 10 minutes. Cells were lysed using a dounce homogenizer and then centrifuged. The supernatant was discarded, and the pellet was resuspended with ½ packed nuclear volume (PNV) of low salt buffer (20 mM HEPES pH 7.9, 1.5 mM MgCl2, 20 mM KCl, 0.2 mM EDTA, 25% glycerol, 0.2 mM PMSF, 0.5 mM DTT), followed by ½ PNV of high salt buffer (same as low salt buffer except 1.4 M KCl was used). The nuclei were gently mixed for 30 minutes before centrifuging. The supernatant (nuclear extract) was then dialyzed into storage buffer (20 mM HEPES pH 7.9, 100 mM KCl, 0.2 mM EDTA, 20% glycerol, 0.2 mM PMSF, 0.5 mM DTT). Protein concentration was determined using NanoDrop 8000 UV-Vis spectrophotometer (ThermoFisher Scientific). • d. In vitro splicing assay (IVS)
All Ad2-derived (Pellizzoni et al., 1998) sequences were cloned into pcDNA3.1(+) vector (Promega) using 5′ EcoRI and 3′ XbaI restriction sites. The plasmids were linearized using XbaI and used as DNA templates in the in vitro transcription reactions. The FtzΔi intron-less plasmid (Luo and Reed, 1999) was linearized using EcoRI. All RNAs were in vitro transcribed and then purified using MEGAScript T7 (Invitrogen) and MegaClear (Invitrogen) kits, respectively. For splicing reactions using Ad2 variant pre-mRNAs, […] reactions were prepared using 8 μg nuclear extracts prepared from HeLa S3, 2 ng pre-mRNA, 0.2 ng FTZΔi, and varying concentrations of exemplary payloads or DMSO. After a 15 minute pre-incubation at 30° C., 1 μL splicing activation buffer (0.5 mM ATP, 20 mM creatine phosphate, 1.6 mM MgCl2) was added, and the reactions were incubated for 90 minutes at 30° C. The reactions were then quenched with 13 μL it DMSO, and 25 nL was used for RT-qPCR. RT-qPCR reactions were prepared using TaqMan RNA-to-CT 1-step kit (Life Technologies), RNA from splicing reactions, Ad2 (forward: […]; reverse: […]; probe: […]) and Ftz (forward: […]; reverse: […]; probe: […]) mRNA primer-probe sets. Prism 6 (Graphpad) was used for non-linear regression curve fitting of the formed spliced product and normalized to the control (DMSO) sample.

SF3b complexes = molecular target: T1, SF3b complexes (Homo sapiens, UniProt O75533+Q7RTV0); test: Scintillation proximity assay (SPA) with [3H]-labelled pladienolide probe; assay type: binding; conditions: SF3B1 (WT); geometric mean; read-out: SPA-ATS GMean IC50 (nM) SF3B1 (WT)
T1 construct: endogenous in cells; host or cells: Nuclear extracts; A HeLa S3 extract preparation is described for the in vitro splicing assay
Protocol: Scintillation Proximity Assay (SPA) with [^3-H]-Labelled Pladienolide Probe
as §1

[3] = 72 h, NCIH1568.1, -100% = cidal, 0% = static, 100% = uninhibited growth
[4] = NCI-H1568, read-out: CTGlo-ATS GMean GI50 (nM) 72 h NCIH1568.1, 72 h, NCIH1568.1
[5] = Ad2.1 pre-mRNA substrate, read-out: qPCR-IVS-ATS GMean IC50 (nM) Ad2.1
[6] = Ad2.2 pre-mRNA substrate, read-out: qPCR-IVS-ATS GMean IC50 (nM) Ad2.2
[7] = NCI-H1568, 72 h, read-out: CTGlo-ATS GMean GI50 (nM) 72 h NCIH1568.1, NCIH1568.1 cells, 72 h
[8] = NCIH1568.1 cells, 72 h, −100% cidal, 0% static, 100% maximal growth
[9] = NCI-H1568, 72 h, read-out: CTGlo-ATS GMean GI50 (nM) 72 h NCIH1568.1, 72 h, NCIH1568.1
[10] = NCI-H1568, read-out: CTGlo-ATS GMean GI50 (nM) 72 h NCIH1568.1, NCIH1568.1 cells, 72 h

Structure (SMILES) | CTGlo-ATS Mean MinResponse % 72 h NCIH1568.1 [1, 3] [%] | GI50 [1, 4] [nM] | IC50 [2, 5] [nM] | IC50 [2, 6] [nM] | Ratio Ad2.1/2.2 [2] | IC50 (SF3b complexes) [nM] | GI50 [1, 7] [nM] | CTGlo-ATS Mean MinResponse % 72 h NCIH1568.1 [1, 8] [%] | GI50 [1, 9] [nM] | GI50 [1, 10] [nM]
C/C(=C\c1cc(F)cc(N2CCN(C(=O)Cn3cccn3)CC2)c1)[C@H]1OC(=O)C[C@H](O)CC[C@H](C)[C@@H](OC(=O)N2CCN(Cc3cccc(O)c3)CC2)/C=C/[C@@H]1C [Compound 251, [(2S,3S,4E,6R,7S,10R)-2-[(E)-1-[3-fluoro-5-[4-(2-pyrazol-1-ylacetyl)piperazin-1-yl]phenyl]prop-1-en-2-yl]-10-hydroxy-3,7-dimethyl-12-oxo-1-oxacyclododec-4-en-6-yl] 4-[(3-hydroxyphenyl)methyl]piperazine-1-carboxylate] | −87.236 | 13.4 | 49.7 | 28.1 | 1.765 | 52.4 |  |  |  | 
C/C(=C\c1cc(F)cc(N2CCN(CCCO)CC2)c1)[C@H]1OC(=O)C[C@H](O)CC[C@H](C)[C@@H](OC(=O)N2CCN(C)CC2)/C=C/[C@@H]1C [Compound 136] |  |  | 8.64 | 14.5 |  | 8.11 | 7.17 | −90.722 |  | 
C/C(=C\c1cc(F)cc(N2CCN(C(=O)Cn3cccn3)CC2)c1)[C@H]1OC(=O)C[C@H](O)CC[C@H](C)[C@@H](OC(=O)N2CCOCC2)/C=C/[C@@H]1C [Compound 223, [(2S,3S,4E,6R,7S,10R)-2-[(E)-1-[3-fluoro-5-[4-(2-pyrazol-1-ylacetyl)piperazin-1-yl]phenyl]prop-1-en-2-yl]-10-hydroxy-3,7-dimethyl-12-oxo-1-oxacyclododec-4-en-6-yl] morpholine-4-carboxylate] | −62.835 | 33.1 | 93.9 | 6.96 | 13.488 | 15.9 |  |  |  | 
C/C(=C\c1cc(F)cc(N2CCN(C(=O)Cn3cccn3)CC2)c1)[C@H]1OC(=O)C[C@H](O)CC[C@H](C)[C@@H](OC(=O)N(C)CCc2ccc(O)cc2)/C=C/[C@@H]1C [Compound 239, [(2S,3S,4E,6R,7S,10R)-2-[(E)-1-[3-fluoro-5-[4-(2-pyrazol-1-ylacetyl)piperazin-1-yl]phenyl]prop-1-en-2-yl]-10-hydroxy-3,7-dimethyl-12-oxo-1-oxacyclododec-4-en-6-yl] N-[2-(4-hydroxyphenyl)ethyl]-N-methylcarbamate] | −77.758 |  | 103 | 48 | 2.151 | 150 |  |  | 63.5 | 
COc1ccc(Cn2nnc3c(F)cc(/C=C(\C)[C@H]4OC(=O)C[C@H](O)CC[C@H](C)[C@@H](OC(=O)N5CCN(C)CC5)/C=C/[C@@H]4C)cc32)cc1 [Compound 166] |  |  | 1510 | 48.3 |  | 23.8 |  | −66.370 |  | 17.6
C/C(=C\c1cc(F)cc(N2CCN(C(=O)Cn3cccn3)CC2)c1)[C@H]1OC(=O)C[C@H](O)CC[C@H](C)[C@@H](OC(=O)N2CCN(c3ccncc3)CC2)/C=C/[C@@H]1C [Compound 237, [(2S,3S,4E,6R,7S,10R)-2-[(E)-1-[3-fluoro-5-[4-(2-pyrazol-1-ylacetyl)piperazin-1-yl]phenyl]prop-1-en-2-yl]-10-hydroxy-3,7-dimethyl-12-oxo-1-oxacyclododec-4-en-6-yl] 4-pyridin-4-ylpiperazine-1-carboxylate] | −78.619 |  | 18.6 | 9.33 | 1.989 | 8.37 |  |  | 12 | 
C/C(=C\c1cc(F)cc(N2CCN(C(=O)Cn3cccn3)CC2)c1)[C@H]1OC(=O)C[C@H](O)CC[C@H](C)[C@@H](OC(=O)NCCN(C)C)/C=C/[C@@H]1C [Compound 224, [(2S,3S,4E,6R,7S,10R)-2-[(E)-1-[3-fluoro-5-[4-(2-pyrazol-1-ylacetyl)piperazin-1-yl]phenyl]prop-1-en-2-yl]-10-hydroxy-3,7-dimethyl-12-oxo-1-oxacyclododec-4-en-6-yl] N-[2-(dimethylamino)ethyl]carbamate] | −61.875 |  | 41.1 | 5.88 | 6.991 | 3.14 |  |  | 16.4 | 
C/C(=C\c1cc(F)cc(NC2CCN(S(C)(=O)=O)CC2)c1)[C@H]1OC(=O)C[C@H](O)CC[C@H](C)[C@@H](OC(=O)N2CCN(C)CC2)/C=C/[C@@H]1C [Compound 173] |  |  | 88.1 | 28.4 |  | 21 | 15.2 | −79.437 |  | 
C/C(=C\c1cc(F)c2nnn(C3CCN(C(=O)OC(C)(C)C)CC3)c2c1)[C@H]1OC(=O)C[C@H](O)CC[C@H](C)[C@@H](OC(=O)N2CCN(C)CC2)/C=C/[C@@H]1C [Compound 144] |  |  | 23 | 17.8 |  | 12.9 |  | −95.432 |  | 4.12
